# Assay results as given in PubChem BioAssay (NCI).
#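 In this assay, cells in 96-well plates receive the compound at five concentrations for 48 hours. Endpoints are linearly interpolated between the surrounding concentrations. GI50 marks 50% less growth. At the TGI there is no net growth.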
# Assays:
# Assay in all cases: NCI anticancer screen, dose series, 48 h
# 786-0 renal = system: 786-0 renal
# MALME-3M melanoma = system: MALME-3M melanoma
# LOX IMVI melanoma = system: LOX IMVI melanoma
# NCI-H522 lung = system: NCI-H522 lung
# HCC-2998 colon = system: HCC-2998 colon
# M14 melanoma = system: M14 melanoma
# TK-10 renal = system: TK-10 renal
# OVCAR-8 ovarian = system: OVCAR-8 ovarian
# DU-145 prostate = system: DU-145 prostate
# MDA-N = system: MDA-N
# BT-549 breast = system: BT-549 breast
Compound,TGI (786-0 renal) [µM],TGI (MALME-3M melanoma) [µM],TGI (LOX IMVI melanoma) [µM],TGI (NCI-H522 lung) [µM],TGI (HCC-2998 colon) [µM],TGI (M14 melanoma) [µM],TGI (TK-10 renal) [µM],TGI (OVCAR-8 ovarian) [µM],TGI (DU-145 prostate) [µM],TGI (MDA-N) [µM],GI50 (MALME-3M melanoma) [µM],TGI (BT-549 breast) [µM]
COc1cc2c(cc1OC)C1(c3ccc(Cl)cc3)ON=C(c3ccccc3)N1CS2 (stereo not drawn),> 100,> 100,> 100,> 100,> 100,> 100,> 100,–,–,–,–,–
COc1cccc(N2C(=O)C3c4[nH]c5ccc(C)cc5c4C4CCC(C(C)(C)C)CC4C3C2=O)c1 (stereo not drawn),–,> 10,3.98,5.66,> 10,> 10,> 10,5.85,> 10,> 10,–,–
O=C(N/N=C/c1cc(Cl)cc(Cl)c1O)c1ccccc1O,–,11.6,24.9,3.18,14.6,4.07,70.3,13.9,–,–,2.8,–
COc1cc(/C=C(/C#N)C(N)=O)ccc1O,–,> 100,> 100,> 100,> 82.1,–,–,> 100,–,–,–,–
Nc1ccc(C(=O)NN2C(=O)C(Cl)C2c2ccccc2)cc1 (stereo not drawn),> 100,> 100,> 100,> 100,> 100,> 100,> 100,> 100,–,–,–,–
COc1ccc2oc(=N)c(C(=O)Nc3ccccn3)cc2c1,> 100,> 100,> 100,–,> 100,> 100,–,> 100,> 100,–,–,> 100
Cc1ccc(/C(O)=C/C(=O)C(=O)NN=C(c2ccccc2)c2ccccc2)cc1,> 100,> 100,> 100,–,> 100,> 100,> 100,> 100,> 100,> 100,–,> 100
Cc1ccc(CC(C)N)cc1 (stereo not drawn),> 100,> 100,> 100,> 100,> 100,> 100,> 100,> 100,–,–,–,–
c1ccc2c3c([nH]c2c1)C1CCCN1CC3 (stereo not drawn),> 10,> 10,> 10,> 10,> 10,> 10,> 10,> 10,> 10,> 10,–,–
CC1=NN(C(=O)CSc2nc3ccc(I)cc3c(=O)n2Cc2ccccc2)C(=O)C1,> 100,–,> 100,21.2,> 100,> 100,> 100,> 100,> 100,> 100,–,–
CNc1ccc(N)cc1C(=O)N1CCC[C@H]1CO,> 100,> 100,> 100,> 100,–,> 100,> 100,> 100,> 100,> 100,–,> 100
COc1cc(-c2cc(-c3cc([N+](=O)[O-])c(/C=N/NC(=O)c4ccncc4)o3)ccc2OC)ccc1C,> 100,> 100,> 100,> 100,> 100,> 100,> 100,–,–,–,–,–
CC(C)(C)c1cc(C2COC(c3cc(C(C)(C)C)c(O)c(C(C)(C)C)c3)CO2)cc(C(C)(C)C)c1O (stereo not drawn),> 100,> 100,> 100,> 100,–,> 100,> 100,> 100,> 100,> 100,–,> 100
O=[As](O)(O)c1ccc(N=Nc2ccc(O)cc2)cc1,> 100,> 100,> 100,> 100,–,> 100,> 100,> 100,> 100,> 100,–,> 100
Brc1ccc(-c2cn3ccncc3n2)cc1,> 100,> 100,> 100,> 100,–,> 100,> 100,> 100,> 100,> 100,–,> 100
O=C(Cc1ccccc1)NN1C(=O)C(Cl)C1c1ccccc1O (stereo not drawn),> 100,86.1,> 100,> 100,> 100,30.9,> 100,> 100,–,–,–,–
COc1ccc2c(c1)CCN1CCc3cc(OC)c(OC)cc3CC21 (stereo not drawn),> 100,–,> 100,> 10,> 100,> 100,> 100,> 100,> 100,–,–,55.6
CCN(CC)CCNCc1cc(Cl)cc2c1OCOC2,–,> 10,> 10,> 10,> 10,> 10,> 10,> 10,> 10,> 10,–,–
COc1ccc(CSc2ccccc2Cn2cccc2)cc1OC,> 100,> 100,> 100,–,> 100,–,> 100,> 100,> 100,> 100,–,> 100
O=c1onc2c3ccccc3ncn12,> 100,–,> 100,> 100,> 100,> 100,> 100,> 100,> 100,–,–,> 100
O=C(O)CNC(=O)c1c2ccccc2nc2ccccc12,> 100,> 100,> 100,> 100,> 100,> 100,> 100,> 100,> 100,–,–,> 100
COC(=O)C1=C(OC(=O)c2ccccc2)C(C(=O)OC)[C@]2(O)[C@@H](C(=O)OC)[C@H]1C[C@@H](c1ccccc1)[C@@H]2C(=O)OC (stereo partly drawn),93.8,52.1,26.7,–,25,9.57,69.9,20.3,30.3,3.95,–,75.6
C/C(=C/CC[C@]1(CO)CC[C@]2(CO)[C@H](CC[C@@H]3[C@@]4(C)CC[C@H](OC5OCC(O)C(O)C5OC5OC(CO)C(O)C(O)C5O)C(C)(C)[C@@H]4CC[C@]32C)[C@H]1O)CO (stereo partly drawn),> 100,> 100,> 100,> 100,–,> 100,> 100,> 100,> 100,> 100,–,> 100
